Patent publication US9725477B2, “Platinum compounds of malonic acid derivative having leaving group containing amino or alkylamino” (BEIJING FSWELCOME TECHNOLOGY DEVELOPMENT CO., LTD, priority 2012, dated 2017)
Read-outs that look alike come from different tables or passages of the source.

How the values were obtained:
[1] = tested on: gastric cancer MGC803; experiment: MTT cytotoxicity, gastric cancer MGC803; format: cell-based; conditions: n = 6
[2] = tested on: Esophagus cancer ECA109; experiment: MTT cytotoxicity, esophagus cancer ECA109; format: cell-based; conditions: n = 6
[3] = tested on: Lung cancer H292; experiment: MTT cytotoxicity, lung cancer H292; format: cell-based; conditions: Lung cancer H292, MTT, n = 6; read-out: cytotoxicity IC50
[4] = tested on: Testis cell ST; experiment: MTT cytotoxicity, testis cell ST; format: cell-based; conditions: n = 6
[5] = tested on: colon cancer SW480; experiment: MTT cytotoxicity, colon cancer SW480; format: cell-based; conditions: colon cancer SW480, MTT, n = 6; read-out: cytotoxicity IC50
[6] = Solubility in water; conditions: compound of the example (salt form) in water
[7] = tested on: Lung cancer A549; experiment: MTT cytotoxicity, lung cancer A549; conditions: read-out: IC50 of anti-lung cancer A549, method of test example 2
Description: Cell morphologies were observed after being cultivated for 24 hours.

[8] = tested on: normal mice; experiment: in vivo; conditions: method of test example 1; for LD50: Table 1, formula I compounds; for LD50 vALUE: Table 2, formula II compounds
Description: Kunming mice with 4˜6 weeks old and 18 g˜22 g by weight were taken, 50% males and 50% females. […] The condition of mortality and toxicity were observed after administration. Totally observing for 14 days, LD50 value was calculated using Bliss method according to the mortality.

For “2-(2-diethylaminobutyl)-malonate•cis-1,2-(1,2-dihydroxymethyl)-ethylenediamine platinum (II) phosphate [Compound 20]”, the IC50 [1] was 4 µM, the IC50 [2] was 17 µM and the IC50 [3] was 5 µM. It also gave an IC50 [4] of 11 µM.

For “2-(4-diethylaminobutyl)-malonate•cis-(1, 2-trans-cyclopropanediamine) platinum (II) phosphate [Compound 16]”, the IC50 [1] was 4 µM, the IC50 [3] was 5 µM and the IC50 [5] was 13 µM. The IC50 [4] was 10 µM.

“2-(4-diethylaminobutyl)-malonate•cis-(2-aminomethyl-cyclopentylamine) platinum (II) acetate [Compound 27]” showed an IC50 [1] of 5 µM, an IC50 [2] of 54 µM and an IC50 [3] of 4 µM. It also gave an IC50 [4] of 13 µM.

In the case of “2-(4-diethylaminobutyl)-malonate•cis-ammonia•cyclopentylamine platinum (II) acetate [Compound 26]”, the IC50 [1] is reported as 1 µM, the IC50 [2] is reported as 91 µM and the IC50 [3] is reported as 4 µM. The IC50 [4] was 11 µM.

In the case of “2-(4-diethylaminobutyl)-malonate•cis-dicyclopentylamine platinum (II) acetate [Compound 25]”, the IC50 [1] is reported as 3 µM, the IC50 [2] is reported as 29 µM and the IC50 [3] is reported as 6 µM. For the same molecule, the IC50 [4] was 7 µM.

`CCN(CC)CCCCC1C(=O)[O][Pt]2([NH]C3CCC3[NH]2)[O]C1=O.O=C(O)CCC(=O)O` (racemic) [Compound 15, 2-(4-diethylaminobutyl)-malonate•cis-(1,2-trans-cyclobutanediamine) platinum (II) succinate] gave an IC50 [1] of 3 µM, an IC50 [3] of 10 µM and an IC50 [5] of 18 µM.

For `CCN(CC)CCCCC1C(=O)[O][Pt]2([NH]CC3CCC3C[NH]2)[O]C1=O.O=P(O)(O)O` (racemic) [Compound 22, 2-(4-diethylaminobutyl)-malonate•cis-1,4-(trans-2,3-cyclobutyl)-butanediamine platinum (II) phosphate], the IC50 [1] was 7 µM, the IC50 [2] was 102 µM and the solubility [6] was “more than 300 mg/ml”. For the same molecule, the IC50 [3] was 5 µM and the IC50 [4] was 14 µM.

With `CCN(CC)CCCCC1C(=O)[O][Pt]2([NH]CC[NH]2)[O]C1=O.Cc1ccc(S(=O)(=O)O)cc1` [Compound 17, 2-(4-diethylaminobutyl)-malonate•cis-(1,2-ethylenediamine) platinum (II) tosilate] the IC50 [1] was 5 µM, the solubility [6] was “more than 300 mg/ml” and the IC50 [3] was 4 µM. The IC50 [5] was 7 µM and the IC50 [4] was 16 µM.

In the case of `CCN(CC)CCCCC1C(=O)[O][Pt]2([NH]CCC[NH]2)[O]C1=O.O=P(O)(O)O` [Compound 18, 2-(4-diethylaminobutyl)-malonate•cis-(1,3-propanediamine) platinum (II) phosphate], the IC50 [1] is reported as 2 µM, the solubility [6] is reported as “more than 300 mg/ml” and the IC50 [3] is reported as 8 µM. For the same molecule, the IC50 [5] was 14 µM and the IC50 [4] was 22 µM.

For `CCN(CC)CCCCC1C(=O)[O][Pt]2([NH]CCCC[NH]2)[O]C1=O.O=P(O)(O)O` [Compound 19, 2-(4-diethylaminobutyl)-malonate•cis-(1,4-butanediamine) platinum (II) phosphate], the IC50 [1] was 5 µM, the solubility [6] was “more than 300 mg/ml” and the IC50 [3] was 6 µM. It also gave an IC50 [5] of 23 µM and an IC50 [4] of 13 µM.

With `CCN(CC)CCCCC1C(=O)[O][Pt]2([NH]CC(CO)(CO)C[NH]2)[O]C1=O.O=P(O)(O)O` [Compound 21, 2-(4-diethylaminobutyl)-malonate•cis-1,3-(2,2-hydroxymethyl)-propanediamine platinum (II) phosphate] the IC50 [1] was 5 µM, the solubility [6] was “more than 300 mg/ml” and the IC50 [3] was 12 µM. It also gave an IC50 [4] of 13 µM.

In the case of `C[N+](C)(C)CCCCC1C(=O)[O][Pt][O]C1=O.Cc1ccc(S(=O)(=O)[O-])cc1.N[C@@H]1CCCC[C@H]1N` [Compound 29, 2-(4-trimethylaminobutyl)-malonate•cis-(1,2-trans-cyclohexanediamine) platinum(II) tosilate], the IC50 [1] is reported as 2 µM, the IC50 [2] is reported as 25 µM and the IC50 [3] is reported as 7 µM. For the same molecule, the IC50 [4] was 8 µM.

`CCN(C)CC(CCC1C(=O)[O][Pt][O]C1=O)OC.N.N` (stereo not shown) [Compound 30] showed an IC50 ([7]; Table 1, formula I compounds) of 12 µM and an LD50 [8] of 0.759 mmol/kg.

`CCN(C)CC(CCC1C(=O)[O][Pt][O]C1=O)OC.NC1CCCCC1N` (stereo not shown) [Compound 31] gave an IC50 ([7]; Table 1, formula I compounds) of 5 µM and an LD50 [8] of 0.732 mmol/kg.

`CC1CCN(CCCCC2C(=O)[O][Pt]3([NH]C4CC=CCC4[NH]3)[O]C2=O)C1` (stereo not shown) [Compound 33] gave an IC50 ([7]; Table 1, formula I compounds) of 7 µM and an LD50 [8] of 0.826 mmol/kg.

Molecule `CN(CCCCC1C(=O)[O][Pt]2([NH]C3CCCCC3[NH]2)[O]C1=O)C(C)(C)C` (stereo not shown) [Compound 34] has an LD50 [8] of 0.905 mmol/kg.

For `O=C1[O][Pt]2([NH]C3CCCCC3[NH]2)[O]C(=O)C1CCCCN1CC=CC1` (stereo not shown) [Compound 35], the IC50 ([7]; Table 1, formula I compounds) was 4 µM and the LD50 [8] was 0.762 mmol/kg.

For `NC1CCCCC1N.O=C1[O][Pt][O]C(=O)C1CCC(Cl)CN1CCCCC1` (stereo not shown) [Compound 36], the IC50 ([7]; Table 1, formula I compounds) was 7 µM and the LD50 [8] was 0.713 mmol/kg.

For `CC1CCN(CCCCC2C(=O)[O][Pt]3([NH]C4CCCCC4[NH]3)[O]C2=O)CC1` (stereo not shown) [Compound 37], the IC50 ([7]; Table 1, formula I compounds) was 9 µM and the LD50 [8] was 0.825 mmol/kg.

`CC1CCCN1CCCCC1C(=O)[O][Pt]2([NH]C3CCCCC3[NH]2)[O]C1=O` (stereo not shown) [Compound 38] gave an IC50 ([7]; Table 1, formula I compounds) of 6 µM and an LD50 [8] of 0.818 mmol/kg.

For `COC1CC(C)N(CCCCC2C(=O)[O][Pt][O]C2=O)C1C.NC1CCCCC1N` (stereo not shown) [Compound 39], the IC50 ([7]; Table 1, formula I compounds) was 6 µM and the LD50 [8] was 0.711 mmol/kg.

Molecule `CCN(CC)CCCCC1C(=O)[O][Pt][O]C1=O.NC1CC(O)C(O)CC1N` [Compound 40] has an IC50 ([7]; Table 1, formula I compounds) of 21 µM and an LD50 [8] of 0.683 mmol/kg.

Work on `CC1CC(Cl)C(C)N1CCCCC1C(=O)[O][Pt]2([NH]C3CCCCC3[NH]2)[O]C1=O` (stereo not shown) [Compound 41] yielded an IC50 ([7]; Table 1, formula I compounds) of 13 µM and an LD50 [8] of 0.675 mmol/kg.

In the case of `O=C1[O][Pt]2([NH]C3CCCCC3[NH]2)[O]C(=O)C1CCCCN(C1CCCC1)C1CCCC1` (stereo not shown) [Compound 42], the IC50 ([7]; Table 1, formula I compounds) is reported as 5 µM and the LD50 [8] is reported as 0.826 mmol/kg.

In the case of `CN(CCCCC1C(=O)[O][Pt]2([NH]C3CCCCC3[NH]2)[O]C1=O)C1CCCC1` (stereo not shown) [Compound 43], the IC50 ([7]; Table 1, formula I compounds) is reported as 5 µM and the LD50 [8] is reported as 0.841 mmol/kg.

`CN(C)CCCCC1C(=O)[O][Pt][O]C1=O.NC1CCC(N)C1` [Compound 44] gave an IC50 ([7]; Table 1, formula I compounds) of 24 µM and an LD50 [8] of 0.857 mmol/kg.

`CC1CC(C)[NH][Pt]2([NH]1)[O]C(=O)C(CCCCN(C)C)C(=O)[O]2` (stereo not shown) [Compound 45] showed an IC50 ([7]; Table 1, formula I compounds) of 31 µM and an LD50 [8] of 0.834 mmol/kg.

For `CN(C)CCCCC1C(=O)[O][Pt][O]C1=O.NCC1CN1` [Compound 46], the IC50 ([7]; Table 1, formula I compounds) was 27 µM and the LD50 [8] was 0.823 mmol/kg.

Molecule `CN(C)CCCCC1C(=O)[O][Pt][O]C1=O.NCC1CCN1` [Compound 47] has an IC50 ([7]; Table 1, formula I compounds) of 23 µM and an LD50 [8] of 0.815 mmol/kg.

Work on `CN(C)CCCCC1C(=O)[O][Pt][O]C1=O.NCC1CCCN1` [Compound 48] yielded an IC50 ([7]; Table 1, formula I compounds) of 31 µM and an LD50 [8] of 0.831 mmol/kg.

For `CN(C)CCCCC1C(=O)[O][Pt][O]C1=O.NCC1CCCCN1` [Compound 49], the IC50 ([7]; Table 1, formula I compounds) was 45 µM and the LD50 [8] was 0.817 mmol/kg.

`O=C1[O][Pt]2([NH]C3CCCCC3[NH]2)[O]C(=O)C1CCCCN1CCOCC1` (stereo not shown) [Compound 51] gave an IC50 ([7]; Table 1, formula I compounds) of 26 µM and an LD50 [8] of 0.654 mmol/kg.

Work on `CN(CO)CCCCC1C(=O)[O][Pt]([NH2])([NH]C2CCC2)[O]C1=O` (stereo not shown) [Compound 52] yielded an IC50 ([7]; Table 1, formula I compounds) of 41 µM and an LD50 [8] of 0.687 mmol/kg.

`CCN(C)CC(O)CCC1C(=O)[O][Pt][O]C1=O.NC1CCCCC1N` (stereo not shown) [Compound 54] gave an LD50 [8] of 0.792 mmol/kg.

In the case of `CCN(CC)CCCCC1C(=O)[O][Pt]([NH]C2CCCC2)([NH]C2CCCC2)[O]C1=O` [Compound 55], the IC50 ([7]; Table 1, formula I compounds) is reported as 61 µM and the LD50 [8] is reported as 0.852 mmol/kg.

`O=C1[O][Pt]([NH]C2CCCC2)([NH]C2CCCC2)[O]C(=O)C1CCCCN(C1CC1)C1CC1` [Compound 56] showed an IC50 ([7]; Table 1, formula I compounds) of 57 µM and an LD50 [8] of 0.816 mmol/kg.

`CN(CCCCC1C(=O)[O][Pt]2([NH]C3CCCCC3[NH]2)[O]C1=O)Cc1ccccc1` (stereo not shown) [Compound 57] gave an LD50 [8] of 0.613 mmol/kg.

Work on `CN(CCCCC1C(=O)[O][Pt]2([NH]C3CCCCC3[NH]2)[O]C1=O)Cc1ccc(Cl)cc1` (stereo not shown) [Compound 58] yielded an IC50 ([7]; Table 1, formula I compounds) of 37 µM and an LD50 [8] of 0.607 mmol/kg.

`CN(CCCCC1C(=O)[O][Pt]([NH2])([NH2])[O]C1=O)Cc1ccc(Cl)cc1F` [Compound 59] showed an IC50 ([7]; Table 1, formula I compounds) of 68 µM and an LD50 [8] of 0.598 mmol/kg.

With `CCCCN(C)CCCCC1C(=O)[O][Pt]2([NH][C@H]3CCCC[C@H]3[NH]2)[O]C1=O` (stereo partly shown) [Compound 60] the IC50 ([7]; Table 1, formula I compounds) was 9 µM and the LD50 [8] was 0.875 mmol/kg.

For `CCCN.CCN(CC)CCCCC1C(=O)[O][Pt][O]C1=O.NC1CC=NC1` [Compound 63], the IC50 ([7]; Table 1, formula I compounds) was 25 µM and the LD50 [8] was 0.804 mmol/kg.

In the case of `CCCC[N+](C)(C)CCCCC1C(=O)[O][Pt]2([NH][C@H]3CC(OC)C(OC)C[C@H]3[NH]2)[O]C1=O` (stereo partly shown) [Compound 65], the IC50 ([7]; Table 2, formula II compounds) is reported as 16 µM and the “LD50 vALUE” [8] is reported as 0.615 mmol/kg.

In the case of `CC[N+](CC)(CC)CCCCC1C(=O)[O][Pt]([NH2])([NH2])[O]C1=O` [Compound 66], the IC50 ([7]; Table 2, formula II compounds) is reported as 20 µM and the “LD50 vALUE” [8] is reported as 0.677 mmol/kg.

With `CCCC[NH][Pt]1([NH]CCCC)[O]C(=O)C(CCCC[N+](CC)(CC)CC)C(=O)[O]1` [Compound 67] the IC50 ([7]; Table 2, formula II compounds) was 27 µM and the “LD50 vALUE” [8] was 0.802 mmol/kg.
